Laboratory results: US10000473B2, “Indazole derivatives useful as glucagon receptor antagonists” (Janssen Pharmaceutica NV, priority 2016, dated 2018)
“And” between values parts separate entries of the source, which are not always exact repeats. Equal entries are not always repeated.

Target: T1, human GCGR (Homo sapiens, UniProt P47871)
T1 construct: expressed in transfected cells; host or cells: HEK293 (hGluc-1HEK), pcDNA3.1, G418 selection
Experiment: Cellular functional assay, cAMP readout (glucagon-stimulated cAMP, LANCE TR-FRET)
Format: cell-based
Conditions: HEK293 cells stably expressing full-length human GCGR; glucagon 100 pM; IC50 converted to Ki; read-out: Inhibition of cAMP Ki

T1 sequence (P47871 26-477): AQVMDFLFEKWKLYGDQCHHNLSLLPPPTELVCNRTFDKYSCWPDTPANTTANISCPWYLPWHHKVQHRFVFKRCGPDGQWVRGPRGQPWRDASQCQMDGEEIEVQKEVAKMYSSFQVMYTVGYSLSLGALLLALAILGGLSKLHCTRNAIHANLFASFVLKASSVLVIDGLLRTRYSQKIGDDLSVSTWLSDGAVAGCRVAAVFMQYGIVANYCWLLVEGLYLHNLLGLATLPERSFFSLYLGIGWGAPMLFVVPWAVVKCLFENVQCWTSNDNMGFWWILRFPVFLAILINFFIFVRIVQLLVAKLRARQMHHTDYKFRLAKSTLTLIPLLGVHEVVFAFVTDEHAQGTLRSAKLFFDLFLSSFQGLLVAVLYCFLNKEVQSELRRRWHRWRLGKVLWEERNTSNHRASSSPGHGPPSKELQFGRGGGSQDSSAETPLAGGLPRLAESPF

| Ki | SMILES |
| --- | --- |
| 30 nM | COc1c(-c2ccc(C(F)(F)F)cc2Cl)ccc2c1cnn2[C@@H](CC(C)C)c1ccc(C(=O)NCCC(=O)O)cc1 [Compound #201, 3-[[4-[(1S)-1-[5-[2-Chloro-4-(trifluoromethyl)phenyl]-4-methoxy-indazol-1-yl]-3-methyl-butyl]benzoyl]amino]propanoic acid] |
| 199 nM | Cc1cc(C(F)(F)F)ccc1-c1ccc2nn(C(CC(C)C)c3ccc(C(=O)NCCC(=O)O)cc3)cc2c1 (stereo not drawn) [Compound #189, 3-(4-(3-Methyl-1-(5-(2-methyl-4-(trifluoromethyl)phenyl)-2H-indazol-2-yl)butyl)benzamido)propanoic acid] |
| 15 nM | CCOc1c(-c2ccc(C(F)(F)F)cc2C)ccc2c1cnn2C(CC(C)C)c1ccc(C(=O)NCCC(=O)O)nc1 (stereo not drawn) [Compound #197, 3-(5-(1-(4-Ethoxy-5-(2-methyl-4-(trifluoromethyl)phenyl)-1H-indazol-1-yl)-3-methylbutyl)picolinamido)propanoic acid] |
| 55 nM | COc1c(-c2ccc(C(F)(F)F)cc2Cl)ccc2c1cnn2C(CC(C)C)c1ccc(C(=O)NCCC(=O)O)nc1 (stereo not drawn) [Compound #250, 3-(5-(1-(5-(2-Chloro-4-(trifluoromethyl)phenyl)-4-methoxy-1H-indazol-1-yl)-3-methylbutyl)picolinamido)propanoic acid] |
| 240 nM | O=C(O)CCNC(=O)c1ccc(C(CCC(F)(F)C(F)(F)F)n2cc3cc(-c4ccc(C(F)(F)F)cc4)ccc3n2)cc1 (stereo not drawn) [compound 65] |
| 42 nM | Cc1cc(Cl)ccc1-c1ccc2nn(C(CC(C)(C)C)c3ccc(C(=O)NCCC(=O)O)cc3)cc2c1 (stereo not drawn) [compound 195] |
| 447 nM | Cc1cc(Cl)ccc1-c1ccc2c(cnn2C(CC(C)C)c2ccc(C(=O)NCCC(=O)O)nc2)c1 (stereo not drawn) [Compound #14, 3-(5-(1-(5-(4-Chloro-2-methylphenyl)-1H-indazol-1-yl)-3-methylbutyl)picolinamido)propanoic acid] |
| 160 nM | CC(C)(C)CC(c1ccc(C(=O)NCCC(=O)O)nc1)n1ncc2cc(-c3ccc(C(F)(F)F)cc3)ccc21 (stereo not drawn) [compound 237] |
| 260 nM | CC(C)CC(c1ccc(C(=O)NCCC(=O)O)cc1)n1ncc2cc(-c3cc4cc(F)ccc4s3)ccc21 (stereo not drawn) [compound 172] |
| 83 nM | O=C(O)CCNC(=O)c1ccc(C(C2CCCCC2)n2cc3cc(-c4ccc(C(F)(F)F)cc4Cl)ccc3n2)cc1 (stereo not drawn) [compound 98] |
| 135 nM | CC(C)CC(c1ccc(C(=O)NCCC(=O)O)nc1)n1cc2cc(-c3cc4ccccc4o3)ccc2n1 (stereo not drawn) [Compound #260, 3-(5-(1-(5-(Benzofuran-2-yl)-2H-indazol-2-yl)-3-methylbutyl)picolinamido)propanoic acid] |
| 485 nM | Cc1ccc(-c2ccc3c(cnn3C(CC(C)C)c3ccc(C(=O)NCCC(=O)O)cc3)c2C)c(C)c1 (stereo not drawn) [Compound #177, 3-(4-(1-(5-(2,4-Dimethylphenyl)-4-methyl-1H-indazol-1-yl)-3-methylbutyl)benzamido)propanoic acid] |
| 210 nM | O=C(O)CCNC(=O)c1ccc(C(CCC2CCC2)n2cc3cc(-c4ccc(C(F)(F)F)cc4)ccc3n2)cc1 (stereo not drawn) [Compound #215, 3-(4-(3-Cyclobutyl-1-(5-(4-(trifluoromethyl)phenyl)-2H-indazol-2-yl)propyl)benzamido)propanoic acid] |
| 28 nM | Cc1cc(C(F)(F)F)ccc1-c1ccc2nn(C(CC(C)C)c3ccc(C(=O)NCCC(=O)O)cc3)cc2c1C (stereo not drawn) [Compound #63, 3-(4-(3-Methyl-1-(4-methyl-5-(2-methyl-4-(trifluoromethyl)phenyl)-2H-indazol-2-yl)butyl)benzamido)propanoic acid] |
| 102 nM | Cc1cc2c(cnn2C(CC(C)C)c2ccc(C(=O)NCCC(=O)O)cc2)cc1-c1ccc(C(F)(F)F)cc1 (stereo not drawn) [Compound #25, 3-[[4-[3-Methyl-1-[6-methyl-5-[4-(trifluoromethyl)phenyl]indazol-1-yl]butyl]benzoyl]amino]propanoic acid] |
| 86 nM | CC(C)CC(c1ccc(C(=O)NCCC(=O)O)cc1)n1ncc2cc(-c3ccc(C(F)(F)F)cc3Cl)ccc21 (stereo not drawn) [Compound #41, 3-(4-(1-(5-(2-Chloro-4-(trifluoromethyl)phenyl)-1H-indazol-1-yl)-3-methylbutyl)benzamido)propanoic acid] |
| > 2600 nM | Cc1cc(-c2ccc(C(C)(C)C)cc2)cc2cnn(C(CC(C)C)c3ccc(C(=O)NCCC(=O)O)nc3)c12 (stereo not drawn) [compound 72] |
| 76 nM | CC(C)CC(c1ccc(C(=O)NCCC(=O)O)cc1)n1cc2cc(-c3cc4ccccc4o3)ccc2n1 (stereo not drawn) [Compound #13] |
| 30 nM | Cc1cc(C(F)(F)F)ccc1-c1cc2cn(C(CC(C)C)c3ccc(C(=O)NCCC(=O)O)nc3)nc2cc1C (stereo not drawn) [Compound #187, 3-[[5-[3-Methyl-1-[6-methyl-5-[2-methyl-4-(trifluoromethyl)phenyl]indazol-2-yl]butyl]pyridine-2-carbonyl]amino]propanoic acid] |
| 140 nM | O=C(O)CCNC(=O)c1ccc(C(CCC(F)(F)F)n2ncc3cc(-c4cc5ccccc5s4)ccc32)cc1 (stereo not drawn) [Compound #115, 3-[[4-[1-[5-(Benzothiophen-2-yl)indazol-1-yl]-4,4,4-trifluorobutyl]benzoyl]amino]propanoic acid] |
| 80 nM | O=C(O)CCNC(=O)c1ccc(C(CCc2ccc(Cl)cc2)n2cc3cc(-c4ccc(C(F)(F)F)cc4)ccc3n2)cc1 (stereo not drawn) [compound 200] |

| Ki | SMILES |
| --- | --- |
| 465 nM | CC(C)CC(c1ccc(C(=O)NCCC(=O)O)cc1)n1ncc2cc(-c3ccc(C(C)(C)C)cc3)ccc21 (single isomer, unassigned) [Compound #163] |
| 35 nM | COc1c(-c2ccc(C(F)(F)F)cc2Cl)ccc2nn([C@@H](CC(C)C)c3ccc(C(=O)NCCC(=O)O)cc3)cc12 [Compound #150, 3-[[4-[(1S)-1-[5-[2-Chloro-4-(trifluoromethyl)phenyl]-4-methoxy-indazol-2-yl]-3-methyl-butyl]benzoyl]amino]propanoic acid] |
| 105 nM | CC(C)CCC(c1ccc(C(=O)NCCC(=O)O)cc1)n1cc2cc(-c3ccc(C(F)(F)F)cc3)ccc2n1 (stereo not drawn) [compound 27] |
| 105 nM | CC(C)CC(c1ccc(C(=O)NCCC(=O)O)nc1)n1cc2cc(-c3ccc(C(F)(F)F)cc3Cl)ccc2n1 (stereo not drawn) [Compound #53, 3-(5-(1-(5-(2-Chloro-4-(trifluoromethyl)phenyl)-2H-indazol-2-yl)-3-methylbutyl)picolinamido)pr-opanoic acid] |
| 86 nM | CC(C)CC(c1ccc(C(=O)NCCC(=O)O)cc1)n1cc2cc(-c3ccc(C(C)(C)C)cc3)ccc2n1 (stereo not drawn) [Compound #34, 3-(4-(1-(5-(4-(tert-butyl)phenyl)-2H-indazol-2-yl)-3-methylbutyl)benzamido)propanoic acid] |
| 470 nM | CC(C)CC(c1ccc(C(=O)NCCC(=O)O)nc1)n1ncc2cc(-c3cc4ccccc4s3)ccc21 (stereo not drawn) [compound 48] |
| 115 nM | CC(C)CC(c1ccc(C(=O)NCCC(=O)O)cc1)n1ncc2c(Cl)c(-c3ccc(C(F)(F)F)cc3Cl)ccc21 (stereo not drawn) [Compound #141, 3-(4-(1-(4-Chloro-5-(2-chloro-4-(trifluoromethyl)phenyl)-1H-indazol-1-yl)-3-methylbutyl)benzamido)propanoic acid] |
| 210 nM | Cc1cc(Cl)ccc1-c1ccc2c(cnn2C(CC(C)(C)C)c2ccc(C(=O)NCCC(=O)O)nc2)c1 (stereo not drawn) [compound 238] |
| 235 nM | O=C(O)CCNC(=O)c1ccc(C(CCC(F)(F)F)n2ncc3cc(-c4ccc(C(F)(F)F)cc4)ccc32)cc1 (stereo not drawn) [Compound #75, 3-[[4-[4,4,4-Trifluoro-1-[5-[4-(trifluoromethyl)phenyl]indazol-1-yl]butyl]benzoyl]amino]propanoic acid] |
| 90 nM | CC(C)(C)CC(c1ccc(C(=O)NCCC(=O)O)nc1)n1cc2cc(-c3ccc(C(F)(F)F)cc3)ccc2n1 (stereo not drawn) [compound 212] |
| > 5200 nM | CC(C)CCn1cc(-c2ccc3c(cnn3C(CC(C)C)c3ccc(C(=O)NCCC(=O)O)cc3)c2)cn1 (stereo not drawn) [compound 123] |
| 136 nM | CCCCCCC(c1ccc(C(=O)NCCC(=O)O)cc1)n1cc2cc(-c3ccc(C(C)(C)C)cc3)ccc2n1 (stereo not drawn) [compound 86] |
| 310 nM | O=C(O)CCNC(=O)c1ccc(C(CC2CCCCC2)n2ncc3cc(-c4ccc(C(F)(F)F)cc4)ccc32)cc1 (stereo not drawn) [compound 131] |
| 200 nM | CCCCCCC(c1ccc(C(=O)NCCC(=O)O)nc1)n1ncc2cc(-c3ccc(Cl)cc3C)ccc21 (stereo not drawn) [compound 244] |
| 85 nM | CC(C)C[C@@H](c1ccc(C(=O)NCCC(=O)O)cc1)n1ncc2cc(-c3ccc(C(F)(F)F)cc3Cl)ccc21 [Compound #90, 3-[[4-[(1S)-1-[5-[2-Chloro-4-(trifluoromethyl)phenyl]indazol-1-yl]-3-methyl-butyl]benzoyl]amino]propanoic acid] |
| 90 nM and 159 nM | CC(C)CC(c1ccc(C(=O)NCCC(=O)O)cc1)n1ncc2cc(-c3ccc(C(C)(C)C)cc3)ccc21 (stereo not drawn) [Compound #1, 3-(4-(1-(5-(4-(tert-Butyl)phenyl)-1H-indazol-1-yl)-3-methylbutyl)benzamido)propanoic acid] |
| 22 nM | COc1c(-c2ccc(C(F)(F)F)cc2C)ccc2c1cnn2[C@@H](CC(C)C)c1ccc(C(=O)NCCC(=O)O)cc1 [Compound #192, 3-[[4-[(1S)-1-[4-Methoxy-5-[2-methyl-4-(trifluoromethyl)phenyl]indazol-1-yl]-3-methyl-butyl]benzoyl]amino]propanoic acid] |
| 35 nM | Cc1c(-c2ccc(C(C)(C)C)cc2)ccc2nn(C(CC(C)C)c3ccc(C(=O)NCCC(=O)O)cc3)cc12 (stereo not drawn) [Compound #78, 3-(4-(1-(5-(4-(tert-Butyl)phenyl)-4-methyl-2H-indazol-2-yl)-3-methylbutyl)benzamido)propanoic acid] |
| 59 nM | Cc1cc(Cl)ccc1-c1ccc2nn(C(CCC(F)(F)F)c3ccc(C(=O)NCCC(=O)O)cc3)cc2c1 (stereo not drawn) [Compound #8, 3-[[4-[1-[5-(4-Chloro-2-methyl-phenyl)indazol-2-yl]-4,4,4-trifluorobutyl]benzoyl]amino]propanoic acid] |
| 1350 nM | CC(C)CC(c1ccc(C(=O)NCCC(=O)O)cc1)n1ncc2cc(-c3cccc4ccccc34)ccc21 (stereo not drawn) [compound 165] |
| > 5200 nM | CC(C)CC(c1ccc(C(=O)NCCC(=O)O)nc1)n1cc2c(C(F)(F)F)c(-c3ccc(C(F)(F)F)cc3Cl)ccc2n1 (stereo not drawn) [compound 235] |
